# In patent publication US12268702B2, “Antitumor pharmaceutical composition comprising azvudine and chemotherapeutic agent” (HENAN GENUINE BIOTECH CO., LTD., priority 2023, dated 2025):
# Legend:
# [1] = tested on: Colo 205 human colon cancer model; experiment: Colo 205 human colon cancer subcutaneous xenograft tumor model; type: in vivo
# Protocol: Experimental animals were 68 (48 plus 20 spare mice) BALB/c female nude mice, 7-8 weeks old (the age of mice at the time of tumor cell inoculation) and weighing 15.7-20.7 g, which were purchased from Beijing VitalRiver Experimental Animal Technology Co., Ltd. Breeding environment was SPF grade. The experimental animals were all kept in an independent ventilated box with constant temperature and humidity. The temperature of the breeding room was 20-26° C., the humidity was 40-70%. The breeding room was ventilated 10-20 times per hour. The alternating time of day and night was 12 h/12 h. The mice were continuously supplied with cobalt 60 radiation sterilized mouse complete pellet feed, and had free access to the feed. The mice drank tap water (available after sterilization with high-pressure steam), which was continuously supplied using a water-drinking bottle, and had free access to water. The mouse box was a polysulfone mouse box, which was used after sterilization under high pressure, with a size of 325 mm×210 mm×180 mm.
# Colo 205 cells were cultured in RPMI1640 medium containing 10% fetal bovine serum. Colo 205 cells in the exponential growth phase were collected, resuspended in PBS to an appropriate concentration and mixed with Matrigel at a ratio of 1:1. The resulting mixture was used for subcutaneous inoculation of tumor in mice. 5×10^6 Colo 205 cells were subcutaneously inoculated on the right side of female mice. The day of inoculation was defined as Day 0. When the average tumor volume reached 110.26 mm^3, the mice were randomly divided into groups according to tumor size.
# Relative tumor proliferation rate, T/C %, refers to the percentage value of the relative tumor volume or tumor weight of the treatment group and the control group at a certain time point, which was calculated as follows:
# T/C %=TRTV/CRTV×100% (TRTV: the average RTV of the treatment group; CRTV: the average RTV of the vehicle control group; RTV=Vt/V0, where V0 is the tumor volume of the animal when grouped, and Vt is the tumor volume of the animal after treatment); • or T/C %=TTW/CTW×100% (TTW: the average tumor weight of the treatment group at the end of the experiment; CTW: the average tumor weight of the vehicle control group at the end of the experiment). • Relative tumor inhibition rate, TGI (%), was calculated according to the formula as follows: TGI %=(1−T/C)×100%. (T and C are the relative tumor volumes (RTV) or tumor weights (TW) of the treatment group and the control group at a specific time point).
# [2] = tested on: A2058 xenograft tumor model; experiment: Human melanoma A2058 cell subcutaneous xenograft tumor model; type: in vivo; details: azvudine 1 mg/kg, dacarbazine 60 mg/kg, combination 1 + 60 mg/kg
# Protocol: Human melanoma cells A2058 (Cat. No.: CRL-11147) were cultured in vitro as a monolayer in DMEM medium containing 10% fetal bovine serum, 100 U/mL penicillin and 100 μg/mL streptomycin, in a 37° C. and 5% CO2 incubator. The cells were routinely digested with trypsin-EDTA and passaged twice a week. When the cell saturation reached 80%-90% and the cell number achieved the requirement, the cells were collected, counted and inoculated.
# 0.2 mL (5×10^6) of A2058 cells were added with Matrigel, and the mixture was subcutaneously inoculated on the right back of each mouse. The grouping administration was started when the average tumor volume reached about 136 mm^3.
# [3] = based on tumor volume, 25th day after inoculation, p.o. QD x 3 weeks, azvudine 1 mpk, capecitabine 400 mpk, combination 1 + 400 mpk
# [4] = based on tumor weight, azvudine 1 mpk, capecitabine 400 mpk, combination 1 + 400 mpk
# [5] = based on tumor volume, 14th day
smiles,measurement,setting,value
"[N-]=[N+]=N[C@]1(CO)O[C@@H](n2ccc(N)nc2=O)[C@@H](F)[C@@H]1O [Azvudine, azvudine]",Tumor volume,"[1]; 25th day after inoculation (20th day after grouping), BALB/c nude mice, p.o. QD x 3 weeks, azvudine 1 mpk, capecitabine 400 mpk, combination 1 + 400 mpk",985.14 ± 108.58(6)
same,average tumor volume,"[1]; 25th day after tumor inoculation (20th day after grouping), azvudine 1 mg/kg, capecitabine 400 mg/kg, combination 1 + 400 mg/kg",985.14 mm^3
same,T/C (%),[1]; [3],67.57%
same,TGI (%),[1]; [3],32.43%
same,T/C (%),[1]; [4],28.19%
same,TGI,[1]; [4],71.81
same,Tumor weight (mg),"[1]; end of experiment, p.o. QD x 3 weeks, azvudine 1 mpk, capecitabine 400 mpk, combination 1 + 400 mpk",986.10 ± 107.78(6) mg
same,Tumor volume (mm^3) on the 14th day,"[2]; 14th day of administration, listed as azvudine",2253 mm^3
same,T/C (%),[2]; [5],79.67%
same,TGI (%),[2]; [5],18.22%
